Data as given in PMC9228270, “Design, Synthesis, In Silico Studies and Inhibitory Activity towards Bcr-Abl, BTK and FLT3-ITD of New 2,6,9-Trisubstituted Purine Derivatives as Potential Agents for the Treatment of Leukaemia” (Pharmaceutics, 2022).
Where “and” joins values, the source holds several entries; their conditions need not be identical. Identical values can stand only once.

Key:
Bcr-Abl1 = Bcr-Abl1 (Homo sapiens, UniProt P00519); experiment: Recombinant kinase radioassay, Abl; assay type: biochemical; conditions: ATP 1 µM, at least three independent experiments, range 0.01–100 µM
Bcr-Abl1, sequence (P00519 27-1130): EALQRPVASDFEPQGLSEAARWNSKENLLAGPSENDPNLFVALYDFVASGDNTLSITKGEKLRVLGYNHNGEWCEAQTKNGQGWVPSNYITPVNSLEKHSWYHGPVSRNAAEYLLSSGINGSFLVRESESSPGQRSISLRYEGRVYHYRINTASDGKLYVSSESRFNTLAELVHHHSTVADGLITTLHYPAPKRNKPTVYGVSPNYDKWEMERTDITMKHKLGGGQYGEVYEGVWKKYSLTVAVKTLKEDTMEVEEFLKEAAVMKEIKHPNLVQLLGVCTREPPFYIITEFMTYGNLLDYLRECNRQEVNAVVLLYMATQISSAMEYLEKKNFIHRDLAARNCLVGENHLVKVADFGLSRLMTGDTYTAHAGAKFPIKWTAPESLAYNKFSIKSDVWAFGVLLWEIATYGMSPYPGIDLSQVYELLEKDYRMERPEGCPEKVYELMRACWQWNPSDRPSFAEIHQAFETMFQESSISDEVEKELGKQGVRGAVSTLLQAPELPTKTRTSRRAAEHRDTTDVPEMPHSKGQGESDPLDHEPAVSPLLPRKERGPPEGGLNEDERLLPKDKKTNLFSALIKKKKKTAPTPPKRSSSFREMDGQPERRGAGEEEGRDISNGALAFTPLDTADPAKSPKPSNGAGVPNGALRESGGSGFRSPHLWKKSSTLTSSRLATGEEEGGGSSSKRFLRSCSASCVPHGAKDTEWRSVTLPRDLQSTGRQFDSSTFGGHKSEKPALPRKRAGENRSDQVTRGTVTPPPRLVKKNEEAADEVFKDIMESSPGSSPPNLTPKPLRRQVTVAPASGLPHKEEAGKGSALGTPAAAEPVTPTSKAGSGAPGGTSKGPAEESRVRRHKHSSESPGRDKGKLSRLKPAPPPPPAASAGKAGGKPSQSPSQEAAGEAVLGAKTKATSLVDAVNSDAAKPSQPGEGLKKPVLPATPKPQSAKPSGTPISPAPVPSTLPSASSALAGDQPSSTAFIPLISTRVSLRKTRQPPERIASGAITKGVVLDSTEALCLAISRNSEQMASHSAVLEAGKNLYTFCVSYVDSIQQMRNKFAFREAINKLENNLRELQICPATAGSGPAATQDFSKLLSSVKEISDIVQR
Protocol: (§1) Recombinant kinase inhibition was measured using standard radioassay. Bcr-Abl1 and Cdk-2/cyclin E kinases were produced in-house, FLT3-ITD and BTK were purchased from ProQinase. The kinases were assayed with suitable substrates (500 µM peptide […] for Abl, 1 mg/mL histone H1 for Cdk-2, 100 µM poly (Glu:Tyr; 4:1)) in the presence of ATP (1 µM for Bcr-Abl, 15 µM for Cdk-2 and BTK), 0.05 µCi [γ-^33P]ATP and the test compound in reaction buffer (60 mM HEPES-NaOH, pH 7.5, 3 mM MgCl2, 3 mM MnCl2, 3 µM Na orthovanadate, 1.2 mM DTT, 2.5 µg/50 µL PEG20.000). The reactions were stopped by adding 3% aq. H3PO4. P-81 phosphocellulose (Whatman) was used to separate phosphorylated substrates. Kinase activity was quantified using a FLA-7000 digital image analyser.

BTK = target: T1, BTK (Homo sapiens, UniProt Q06187); experiment: Recombinant kinase radioassay, BTK; assay type: biochemical; conditions: recombinant kinase, radioassay, ATP 15 µM; at least three independent experiments, range 0.01–100 µM; read-out: IC50 BTK
T1 construct: purchased ProQinase
T1 sequence (Q06187 whole entry): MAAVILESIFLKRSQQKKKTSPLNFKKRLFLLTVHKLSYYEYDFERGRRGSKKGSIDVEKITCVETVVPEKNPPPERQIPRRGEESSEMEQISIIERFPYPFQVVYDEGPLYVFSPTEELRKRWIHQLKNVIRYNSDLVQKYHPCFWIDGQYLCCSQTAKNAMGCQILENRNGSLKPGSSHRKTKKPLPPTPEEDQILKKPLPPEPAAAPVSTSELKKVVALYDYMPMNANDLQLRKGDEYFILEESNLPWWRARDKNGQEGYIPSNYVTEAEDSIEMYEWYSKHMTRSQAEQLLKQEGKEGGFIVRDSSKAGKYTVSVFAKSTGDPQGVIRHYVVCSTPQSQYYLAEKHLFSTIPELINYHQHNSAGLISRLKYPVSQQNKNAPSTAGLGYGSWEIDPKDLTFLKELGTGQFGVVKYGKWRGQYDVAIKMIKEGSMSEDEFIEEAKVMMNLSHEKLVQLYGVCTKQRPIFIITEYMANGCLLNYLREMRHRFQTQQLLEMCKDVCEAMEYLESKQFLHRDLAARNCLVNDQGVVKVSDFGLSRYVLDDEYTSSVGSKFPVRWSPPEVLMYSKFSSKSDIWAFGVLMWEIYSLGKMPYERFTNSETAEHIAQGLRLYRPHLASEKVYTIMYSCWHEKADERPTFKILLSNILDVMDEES
Protocol: as §1

FLT3-ITD = target: T2, FLT3-ITD (Homo sapiens, UniProt P36888, ITD); experiment: Recombinant kinase radioassay, FLT3-ITD; assay type: biochemical; conditions: recombinant kinase, radioassay; at least three independent experiments, range 0.01–100 µM; read-out: IC50 FLT3-ITD
T2 sequence (P36888 27-993): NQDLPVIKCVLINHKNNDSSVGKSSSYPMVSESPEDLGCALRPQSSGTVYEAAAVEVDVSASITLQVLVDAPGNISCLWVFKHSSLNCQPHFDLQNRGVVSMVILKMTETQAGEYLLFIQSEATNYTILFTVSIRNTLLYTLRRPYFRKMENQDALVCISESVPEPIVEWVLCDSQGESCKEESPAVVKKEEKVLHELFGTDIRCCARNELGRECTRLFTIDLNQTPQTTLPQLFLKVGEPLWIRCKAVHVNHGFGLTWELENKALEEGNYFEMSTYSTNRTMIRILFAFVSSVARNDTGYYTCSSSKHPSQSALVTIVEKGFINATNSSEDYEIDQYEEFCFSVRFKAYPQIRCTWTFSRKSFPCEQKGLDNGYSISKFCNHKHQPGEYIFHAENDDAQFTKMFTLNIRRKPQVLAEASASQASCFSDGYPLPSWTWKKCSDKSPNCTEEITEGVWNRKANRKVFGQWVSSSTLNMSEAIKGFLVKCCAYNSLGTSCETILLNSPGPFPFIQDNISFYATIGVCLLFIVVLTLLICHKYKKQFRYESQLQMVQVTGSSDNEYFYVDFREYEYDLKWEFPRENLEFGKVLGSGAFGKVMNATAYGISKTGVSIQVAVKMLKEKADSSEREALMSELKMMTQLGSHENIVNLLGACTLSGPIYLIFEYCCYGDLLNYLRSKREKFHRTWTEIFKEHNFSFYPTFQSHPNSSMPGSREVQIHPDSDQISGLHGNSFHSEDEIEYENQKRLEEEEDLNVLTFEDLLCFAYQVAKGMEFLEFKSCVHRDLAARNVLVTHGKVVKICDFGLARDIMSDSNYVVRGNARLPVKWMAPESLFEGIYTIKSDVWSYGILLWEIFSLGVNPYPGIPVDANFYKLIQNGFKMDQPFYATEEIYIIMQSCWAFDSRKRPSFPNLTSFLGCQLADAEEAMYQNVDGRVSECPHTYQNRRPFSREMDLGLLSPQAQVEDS
Protocol: as §1

Cdk-2/cyclin E = target: T3, Cdk-2/cyclin E (Homo sapiens, UniProt P24941); experiment: Recombinant kinase radioassay, Cdk-2/cyclin E; assay type: biochemical; conditions: ATP 15 µM, at least three independent experiments, range 0.01–100 µM
T3 construct: made in house
Protocol: as §1

K562 = experiment: Cytotoxicity assay (resazurin), K562; assay type: cell-based; conditions: Homo sapiens, 72 h, three independent experiments, range 0.1 to 25 µM
Protocol: (§2) Cytotoxicity assays for the purines were quantified using the resazurin method, a dye to measure redox reactions occurring in the mitochondria of live cells. The cells were treated by tested compounds (in triplicate, six different doses) for 72 h.

HL-60 = experiment: Cytotoxicity assay (resazurin), HL-60; assay type: cell-based; conditions: Homo sapiens, 72 h, three independent experiments, range 0.1 to 25 µM
Protocol: as §2

MV4-11 = experiment: Cytotoxicity assay (resazurin), MV4-11; assay type: cell-based; conditions: Homo sapiens, 72 h, three independent experiments, range 0.1 to 25 µM
Protocol: as §2

Ramos = experiment: Cytotoxicity assay (resazurin), Ramos; assay type: cell-based; conditions: Homo sapiens, 72 h, three independent experiments, range 0.1 to 25 µM
Protocol: as §2

CEM = experiment: Cytotoxicity assay (resazurin), CEM; assay type: cell-based; conditions: Homo sapiens, CCRF-CEM, 72 h, three independent experiments, range 0.1 to 25 µM
Protocol: as §2

IC50 (Bcr-Abl1) [µM] | IC50 (BTK) | IC50 (FLT3-ITD) [µM] | IC50 (Cdk-2/cyclin E) [µM] | melting point [°C] | Structure (SMILES) | GI50 (K562) [µM] | GI50 (HL-60) [µM] | GI50 (MV4-11) [µM] | GI50 (Ramos) [µM] | GI50 (CEM) [µM]
1.78 ± 0.2 | 2.22 ± 0.96 µM | 0.23 | 22.1 ± 0.38 | 153.1 to 155.2 | CC(C)CCn1cnc2c(Nc3ccccc3)nc(Nc3ccc(N4CCN(C)CC4)cc3)nc21 [Compound 5a, 9-Isopentyl-N^2-(4-(4-methylpiperazin-1-yl)phenyl)-N^6-phenyl-9H-purine-2,6-diamine] | 8.93 ± 5.52 | 1.52 ± 0.61 | 0.73 ± 0.25 | 10.1 ± 2.98 | 16.4 ± 2.41
1.23 ± 0.02 | < 0.58 µM and 0.42 µM | 0.46 | 31.1 ± 2.91 | 138.5 to 141.3 | CCCCCn1cnc2c(Nc3ccccc3)nc(Nc3ccc(N4CCN(C)CC4)cc3)nc21 [Compound 5d, N^2-(4-(4-Methylpiperazin-1-yl)phenyl)-9-pentyl-N^6-phenyl-9H-purine-2,6-diamine] | 6.7 ± 2.48 | 3.98 ± 1.06 | 1.28 ± 0.38 | 13.8 ± 3.13 | 19.1 ± 3.39
0.65 ± 0.07 | < 0.58 µM and 0.36 µM | 0.5 | 19 ± 8.98 | 147.1 to 149.3 | CCCCCn1cnc2c(Nc3cccc(F)c3)nc(Nc3ccc(N4CCN(C)CC4)cc3)nc21 [Compound 5e, N^6-(3-Fluorophenyl)-N^2-(4-(4-methylpiperazin-1-yl)phenyl)-9-pentyl-9H-purine-2,6-diamine] | 2.14 ± 0.8 | 1.31 | 1.31 ± 0.71 | 11.6 ± 1.46 | 19 ± 3.89
9.82 ± 1.87 | 0.91 ± 0.02 µM | 1.91 | 27.9 ± 1.04 | 155.8 to 160 | CCCCCCn1cnc2c(Nc3ccccc3)nc(Nc3ccc(N4CCN(C)CC4)cc3)nc21 [Compound 5g, 9-Hexyl-N^2-(4-(4-methylpiperazin-1-yl)phenyl)-N^6-phenyl-9H-purine-2,6-diamine] | 15.5 ± 4.98 | 6.11 ± 0.76 | 4.27 ± 1.45 | 22.5 ± 1.23 | 34.7 ± 1.37
> 100 | 0.32 ± 0.01 µM | 2.31 | 80.8 ± 12.5 | 147.1 to 149.9 | CCCCCCn1cnc2c(Nc3cccc(F)c3)nc(Nc3ccc(N4CCN(C)CC4)cc3)nc21 [Compound 5h, N^6-(3-Fluorophenyl)-9-hexyl-N^2-(4-(4-methylpiperazin-1-yl)phenyl)-9H-purine-2,6-diamine] | 24.7 ± 0.41 | 8.77 ± 3.84 | 3.54 ± 1.53 | > 25 | > 25
> 100 | 0.97 ± 0.22 µM | > 20 | 25.6 ± 3.27 | 181.2 to 183.6 | CCCCCCCCn1cnc2c(Nc3cccc(F)c3)nc(Nc3ccc(N4CCN(C)CC4)cc3)nc21 [Compound 5k, N^6-(3-Fluorophenyl)-N^2-(4-(4-methylpiperazin-1-yl)phenyl)-9-octyl-9H-purine-2,6-diamine] | 10 ± 6.31 | 2.16 ± 0.48 | 12.4 ± 3.93 | 15.7 ± 0.37 | 21.3 ± 0.31

More lines, now with the values behind:

Structure (SMILES) | IC50 (Bcr-Abl1) [µM] | IC50 (BTK) | IC50 (FLT3-ITD) [µM] | IC50 (Cdk-2/cyclin E) [µM] | melting point [°C] | GI50 (K562) [µM] | GI50 (HL-60) [µM] | GI50 (MV4-11) [µM] | GI50 (Ramos) [µM] | GI50 (CEM) [µM]
CN1CCN(c2ccc(Nc3nc(Nc4cccc([N+](=O)[O-])c4)c4ncn(CC5CC5)c4n3)cc2)CC1 [Compound 4g, 9-(Cyclopropylmethyl)-N^2-(4-(4-methylpiperazin-1-yl)phenyl)-N^6-(3-nitrophenyl)-9H-purine-2,6-diamine] | 0.11 ± 0.01 | 1.36 ± 0.16 µM | 1.25 | 5.62 ± 0.52 | 165 to 166 | 2.93 ± 0.59 | 8.51 ± 1.79 | 1.98 ± 0.46 | 4.87 ± 0.01 | 11.5 ± 3.93
CN1CCN(c2ccc(Nc3nc(Nc4ccc(OC(F)(F)F)cc4)c4ncn(CC5CC5)c4n3)cc2)CC1 [Compound 4h, 9-(Cyclopropylmethyl)-N^2-(4-(4-methylpiperazin-1-yl)phenyl)-N^6-(4-(trifluoromethoxy)phenyl)-9H-purine-2,6-diamine] | 0.39 ± 0.08 | 0.6 ± 0.22 µM | 0.75 | 18.2 ± 2.05 | 161 to 162 | 2.9 ± 0.91 | 1.08 ± 0.31 | 2.45 ± 0.09 | 11.7 ± 2.88 | 15 ± 0.92
CN1CCN(c2ccc(Nc3nc(Nc4ccc([N+](=O)[O-])cc4)c4ncn(CC5CC5)c4n3)cc2)CC1 [Compound 4j, 9-(Cyclopropylmethyl)-N^2-(4-(4-methylpiperazin-1-yl)phenyl)-N^6-(4-nitrophenyl)-9H-purine-2,6-diamine] | 0.54 ± 0.02 | 0.94 ± 0.04 µM | 0.53 | 23.8 ± 6.05 | 162 to 163 | 2.84 ± 1.04 | 0.42 ± 0.08 | 2.21 ± 0.71 | 1.3 ± 0.5 | 2.52 ± 0.29
CN1CCN(c2ccc(Nc3nc(Nc4ccc(Cl)c(F)c4)c4ncn(CC5CC5)c4n3)cc2)CC1 [Compound 4l, N^6-(4-Chloro-3-fluorophenyl)-9-(cyclopropylmethyl)-N^2-(4-(4-methylpiperazin-1-yl)phenyl)-9H-purine-2,6-diamine] | 0.2 ± 0.05 | 0.88 ± 0.19 µM | 1.03 | 26.6 ± 3.37 | 149 to 150 | 3.45 ± 1.61 | 3.22 ± 0.74 | 2.56 ± 0.64 | 11.2 ± 2.64 | 15.4 ± 0.55
CN1CCN(c2ccc(Nc3nc(Nc4ccc(F)c(Cl)c4)c4ncn(CC5CC5)c4n3)cc2)CC1 [Compound 4m, N^6-(3-Chloro-4-fluorophenyl)-9-(cyclopropylmethyl)-N^2-(4-(4-methylpiperazin-1-yl)phenyl)-9H-purine-2,6-diamine] | 0.27 ± 0.05 | 2.39 ± 0.43 µM | 1.54 | 10.8 ± 3.84 | 153 to 155 | 2.57 ± 0.52 | 0.86 ± 0.11 | 1.88 ± 0.06 | 7.52 ± 0.41 | 13.3 ± 1.58
CN1CCN(c2ccc(Nc3nc(Nc4ccc(Cl)c(Cl)c4)c4ncn(CC5CC5)c4n3)cc2)CC1 [Compound 4n, 9-(Cyclopropylmethyl)-N^6-(3,4-dichlorophenyl)-N^2-(4-(4-methylpiperazin-1-yl)phenyl)-9H-purine-2,6-diamine] | 0.07 ± 0.01 | 3.9 ± 0.05 µM | 2.53 | 12.9 ± 1.7 | 132 to 133 | 5.54 ± 1.56 | 1.52 ± 0.34 | 4.81 ± 1.54 | 8.02 ± 1.3 | 17.54 ± 0.08
CN1CCN(c2ccc(Nc3nc(Nc4ccc(OC(F)(F)F)c([N+](=O)[O-])c4)c4ncn(CC5CC5)c4n3)cc2)CC1 [Compound 4o, 9-(Cyclopropylmethyl)-N^2-(4-(4-methylpiperazin-1-yl)phenyl)-N^6-(3-nitro-4-(trifluoromethoxy)phenyl)-9H-purine-2,6-diamine] | 0.44 ± 0.12 | 5.03 ± 0.99 µM | 2.67 | 12.6 ± 2.12 | 144 to 145 | 2.6 ± 1.25 | 1.68 ± 0.01 | 1.49 ± 0.33 | 4.46 ± 0.38 | 14.8 ± 1.32
